Values after ≈ are worked out from the molar mass of the structure shown. Where two headings read alike, the source gives them in different places.
Legend:
Streptococcus pyogenes = test: In vitro minimum inhibitory concentration (MIC), two-fold serial dilution in Brain-Heart Infusion broth; assay type: cell-based; details: read-out: MIC vs. Strep. pyogenes
Method: The antibacterial penam compounds, 6, show activity against a wide variety of gram-positive and gram-negative bacteria. […] The broth is inoculated with the bacterial culture, and with the test antibiotic, and then it is incubated overnight. On the next day, the test is read visually. The minimum inhibitory concentration (MIC) is the lowest concentration of antibiotic which prevents turbidity, i.e., which prevents growth of the microorganism. In vitro activities of several of the penam compounds of the invention are presented later in this specification.
In vitro antibacterial activities for a number of compounds prepared by the procedure of Example 4 are presented below.
In Table II, the minimum inhibitory concentrations (MIC's) of numerous compounds against a strain of Streptococcus pyogenes, are reported.

Staphylococcus aureus = test: In vivo protection of mice against systemic infection by lethal intraperitoneal inoculum of Staphylococcus aureus; parameters: species or system infected mice; Staphylococcus aureus; details: SC, multiple dosing
Method: (§1) These antibacterial penam compounds are also active in vivo. In determining such activity, the test antibiotic is administered to infected mice, using a multiple dosing regimen. The severity of the infection varies from about one to about ten times the dose needed to kill 100% of the mice under the conditions of the test. At the end of the test, the activity of a compound is assessed by counting the number of survivors among the treated animals. Both the subcutaneous (SC) and oral (PO) dosage routes are used. Results are given in Table I for two compounds produced from the novel intermediate of the invention. The ability of the compounds to protect mice against systemic infections caused by a lethal intraperitoneal inoculum of Staphylococcus aureus or of Escherichia coli is presented.

Escherichia coli = test: In vivo protection of mice against systemic infection by lethal intraperitoneal inoculum of Escherichia coli; parameters: species or system infected mice; Escherichia coli; details: multiple dosing
Method: as §1

[1] = two-fold serial dilution, Brain-Heart Infusion broth, overnight incubation

SMILES	MIC (Streptococcus pyogenes; [1])	other results
CC1(C)SC2C(NC(=O)[C@H](N)c3cccc(O)c3)C(=O)N2C1c1nn[nH]n1 (stereo partly drawn) [D-2-amino-2-(m-hydroxyphenyl)acetyl]	< 0.1 µg/mL	–
CC1(C)SC2C(NC(=O)[C@H](N)Cc3ccccc3)C(=O)N2C1c1nn[nH]n1 (stereo partly drawn) [D-2-amino-3-phenylpropionyl]	0.39 µg/mL (≈ 1.01 µM)	–
CC1(C)S[C@@H]2C(NC(=O)[C@H](N)c3ccc(O)cc3)C(=O)N2C1c1nnn[nH]1 (stereo partly drawn) [6-(D-2-amino-2-[p-hydroxyphenyl]acetamido)-2,2-dimethyl-3-(5-tetrazolyl)penam]	< 0.1 µg/mL	Percentage Protection S. aureus (Staphylococcus aureus; 6 mg./kg.): 50 Percentage; Percentage Protection S. aureus (Staphylococcus aureus; 12 mg./kg.): 50 Percentage; Percentage Protection S. aureus (Staphylococcus aureus; 25 mg./kg.): 70 Percentage; Percentage Protection S. aureus (Staphylococcus aureus; 50 mg./kg.): 80 Percentage; Percentage Protection E. coli (Escherichia coli; 25 mg./kg., SC): 80 Percentage; Percentage Protection E. coli (Escherichia coli; 50 mg./kg., SC): 100 Percentage; Percentage Protection E. coli (Escherichia coli; 200 mg./kg., PO): 100 Percentage
CC1(C)SC2C(NC(=O)C(N)c3ccc(O)c(O)c3)C(=O)N2C1c1nn[nH]n1 (racemic) [DL-2-amino-2-(3,4-dihydroxyphenyl)acetyl]	< 0.1 µg/mL	–
CN(C)c1ccc(C(N)C(=O)NC2C(=O)N3C2SC(C)(C)C3c2nn[nH]n2)cc1 (racemic)	0.39 µg/mL (≈ 0.936 µM)	–
CC1(C)SC2C(NC(=O)[C@@H](N)c3ccc(O)cc3)C(=O)N2C1c1nn[nH]n1 (stereo partly drawn) [L-2-amino-2-(p-hydroxyphenyl)acetyl]	< 0.1 µg/mL	–
CC(=O)NC1C(=O)N2C1SC(C)(C)C2c1nn[nH]n1 (stereo not drawn) [acetyl]	< 0.1 µg/mL	–
CC1(C)SC2C(NC(=O)COc3ccccc3)C(=O)N2C1c1nn[nH]n1 (stereo not drawn) [2-phenoxyacetyl]	< 0.1 µg/mL	–
Cc1onc(-c2ccccc2Cl)c1C(=O)NC1C(=O)N2C1SC(C)(C)C2c1nn[nH]n1 (stereo not drawn)	< 0.1 µg/mL	–
CC1(C)S[C@@H]2C(NC(=O)[C@H](N)c3ccsc3)C(=O)N2C1c1nnn[nH]1 (stereo partly drawn) [6-(D-2-amino-2-[3-thienyl]acetamido)-2,2-dimethyl-3-(5-tetrazolyl)penam]	–	Percentage Protection S. aureus (Staphylococcus aureus; 6 mg./kg.): 50 Percentage; Percentage Protection S. aureus (Staphylococcus aureus; 12 mg./kg.): 50 Percentage; Percentage Protection S. aureus (Staphylococcus aureus; 25 mg./kg.): 60 Percentage; Percentage Protection S. aureus (Staphylococcus aureus; 50 mg./kg.): 40 Percentage; Percentage Protection E. coli (Escherichia coli; 25 mg./kg., SC): 20 Percentage; Percentage Protection E. coli (Escherichia coli; 50 mg./kg., SC): 20 Percentage; Percentage Protection E. coli (Escherichia coli; 200 mg./kg., PO): 0 Percentage
CC1(C)SC2C(NC(=O)[C@H](N)c3ccc(O)c(Cl)c3)C(=O)N2C1c1nn[nH]n1 (stereo partly drawn)	0.1 µg/mL (≈ 0.236 µM)	–
CC1(C)SC2C(NC(=O)C(N)c3ccc(Cl)cc3)C(=O)N2C1c1nn[nH]n1 (racemic) [DL-2-amino-2-(p-chlorophenyl)acetyl]	< 0.1 µg/mL	–
CC1(C)SC2C(NC(=O)Oc3ccccc3)C(=O)N2C1c1nn[nH]n1 (stereo not drawn) [phenoxycarbonyl]	–	MIC (Streptococcus pyogenes): < 0.1 µg/mL
CC1(C)SC2C(NC(=O)OCc3ccccc3)C(=O)N2C1c1nn[nH]n1 (stereo not drawn) [benzyloxycarbonyl]	< 0.1 µg/mL	–
CC1(C)SC2C(NC(=O)C(N)c3cc(O)ccc3Br)C(=O)N2C1c1nn[nH]n1 (racemic)	< 0.1 µg/mL	–
CC1(C)SC2C(NC(=O)CBr)C(=O)N2C1c1nn[nH]n1 (stereo not drawn) [2-bromoacetyl]	< 0.1 µg/mL	–

SMILES	MIC (Streptococcus pyogenes; [1])	other results
CC1(C)SC2C(NC(=O)Cn3cnnn3)C(=O)N2C1c1nn[nH]n1 (stereo not drawn) [2-(1-tetrazolyl)acetyl]	< 0.39 µg/mL	–
CCN=C(NCC)SCC(=O)NC1C(=O)N2C1SC(C)(C)C2c1nn[nH]n1 (stereo not drawn) [2-(N,N'-diethylamidinothio)acetyl]	< 0.1 µg/mL	–
CC1(C)SC2C(NC(=O)[C@H](N)c3ccccc3)C(=O)N2C1c1nn[nH]n1 (stereo partly drawn) [D-2-amino-2-phenylacetyl]	< 0.1 µg/mL	–
CC1(C)SC2C(NC(=O)C=CC(N)=O)C(=O)N2C1c1nn[nH]n1 (stereo not drawn) [3-(carbamoyl)acryloyl]	< 0.1 µg/mL	–
CC1(C)SC2C(NC(=O)CC#N)C(=O)N2C1c1nn[nH]n1 (stereo not drawn) [2-cyanoacetyl]	0.1 µg/mL (≈ 0.325 µM)	–
COc1cccc(OC)c1C(=O)NC1C(=O)N2C1SC(C)(C)C2c1nn[nH]n1 (stereo not drawn) [2,6-dimethoxybenzoyl]	< 0.2 µg/mL	–
CC1(C)SC2C(NC(=O)C3(N)CCCCC3)C(=O)N2C1c1nn[nH]n1 (stereo not drawn) [1-aminocyclohexylcarbonyl]	25 µg/mL (≈ 68.4 µM)	–
CCOC(=O)NC1C(=O)N2C1SC(C)(C)C2c1nn[nH]n1 (stereo not drawn) [ethoxycarbonyl]	< 0.1 µg/mL	–
CC1(C)S[C@@H]2C(NC(=O)Cc3ccccc3)C(=O)N2C1c1nnn[nH]1 (stereo partly drawn) [2-phenylacetyl, 6-(2-phenylacetamido)-2,2-dimethyl-3-(5-tetrazolyl)penam]	< 0.1 µg/mL	–
CC1(C)SC2C(NC(=O)C(N=[N+]=[N-])c3ccccc3)C(=O)N2C1c1nn[nH]n1 (stereo not drawn) [2-azido-2-phenylacetyl]	< 0.1 µg/mL	–
CC(C)[C@@H](N)C(=O)NC1C(=O)N2C1SC(C)(C)C2c1nn[nH]n1 (stereo partly drawn) [D-2-amino-3-methylbutyryl]	0.2 µg/mL (≈ 0.589 µM)	–
CC1(C)SC2C(NC(=O)[C@H](N)c3cccs3)C(=O)N2C1c1nn[nH]n1 (stereo partly drawn) [D-2-amino-2-(2-thienyl)acetyl]	0.1 µg/mL (≈ 0.264 µM)	–
CC1(C)SC2C(NC(=O)CSc3ccncc3)C(=O)N2C1c1nn[nH]n1 (stereo not drawn) [2-(4-pyridylthio)acetyl]	–	MIC (Streptococcus pyogenes): < 0.1 µg/mL
CC1(C)S[C@@H]2C(N)C(=O)N2C1c1nnn[nH]1 (stereo partly drawn) [hydrogen, 6-Amino-2,2-dimethyl-3-(5-tetrazolyl)penam]	< 0.1 µg/mL	–
CC1(C)SC2C(NC(=O)[C@H](N)c3cccc(F)c3)C(=O)N2C1c1nn[nH]n1 (stereo partly drawn) [D-2-amino-2-(m-fluorophenyl)acetyl]	< 0.1 µg/mL	–
CC1(C)SC2C(NC(=O)C(N)c3cccc(Cl)c3)C(=O)N2C1c1nn[nH]n1 (racemic) [DL-2-amino-2-(m-chlorophenyl)acetyl]	0.78 µg/mL (≈ 1.91 µM)	–
